Experimental data as given in patent US6613747B2, “6-O-carbamoyl ketolide antibacterials” (Ortho-McNeil Pharmaceutical, Inc., priority 2000, dated 2003).
Converted amounts (≈) assume the structure as drawn.

Key:
Test in all cases: MIC, microdilution broth method (NCCLS)
Format in all cases: cell-based
[1] = system: S. aureus ATCC29213; settings: B: S. aureus ATCC29213, 35° C., 16-20 hours
Outline: (§1)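 Following the NCCLS microdilution standard, organisms from actively growing broth cultures are added at roughly 5×10^4 CFU/well to two-fold drug series in cation-adjusted Mueller-Hinton broth. Trays incubate 16-20 hours at 35° C. before reading.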

[2] = system: E. coli OC2605; settings: A: E. coli OC2605, 35° C., 16-20 hours
Outline: as §1

[3] = system: E. faecalis ATCC29212; settings: C: E. faecalis ATCC29212, 35° C., 16-20 hours
Outline: as §1

[4] = system: H. influenzae ATCC49247; settings: E: H. influenzae ATCC49247, 35° C., 16-20 hours
Outline: as §1

[5] = system: S. pneumoniae ATCC49619; settings: D: S. pneumoniae ATCC49619, 35° C., 16-20 hours
Outline: as §1

SMILES	MIC [1]	MIC [2]	MIC [3]	MIC [4]	MIC [5]
CC[C@H]1OC(=O)[C@H](C)C(=O)[C@H](C)[C@@H](O[C@@H]2O[C@H](C)C[C@H](N(C)C)[C@H]2O)[C@](C)(OC(=O)NCc2ccc(-n3cccn3)c(OC)c2)C[C@@H](C)C(=O)[C@H](C)[C@H]2NC(=O)O[C@@]21C [Compound 81]	2 µg/mL (≈ 2.42 µM)	>16 µg/mL	0.12 µg/mL (≈ 0.145 µM)	8 µg/mL (≈ 9.66 µM)	0.06 µg/mL (≈ 0.0725 µM)
CC[C@H]1OC(=O)[C@H](C)C(=O)[C@H](C)[C@@H](O[C@@H]2O[C@H](C)C[C@H](N(C)C)[C@H]2O)[C@](C)(OC(=O)NCC#Cc2ccc(-n3cccn3)cc2)C[C@@H](C)C(=O)[C@H](C)[C@H]2NC(=O)O[C@@]21C [Compound 82]	0.25 µg/mL (≈ 0.304 µM)	>16 µg/mL	0.06 µg/mL (≈ 0.073 µM)	4 µg/mL (≈ 4.87 µM)	0.03 µg/mL (≈ 0.0365 µM)
CC[C@H]1OC(=O)[C@H](C)C(=O)[C@H](C)[C@@H](O[C@@H]2O[C@H](C)C[C@H](N(C)C)[C@H]2O)[C@](C)(OC(=O)NCc2ccc(Oc3ncccn3)cc2)C[C@@H](C)C(=O)[C@H](C)[C@H]2NC(=O)O[C@@]21C [Compound 83]	2 µg/mL (≈ 2.42 µM)	>16 µg/mL	0.25 µg/mL (≈ 0.303 µM)	8 µg/mL (≈ 9.69 µM)	0.06 µg/mL (≈ 0.0726 µM)
CC[C@H]1OC(=O)[C@H](C)C(=O)[C@H](C)[C@@H](O[C@@H]2O[C@H](C)C[C@H](N(C)C)[C@H]2O)[C@](C)(OC(=O)NC/C=C/c2ccc(-n3cccn3)c(OC)c2)C[C@@H](C)C(=O)[C@H](C)[C@H]2NC(=O)O[C@@]21C [Compound 84]	0.25 µg/mL (≈ 0.293 µM)	>16 µg/mL	0.12 µg/mL (≈ 0.141 µM)	4 µg/mL (≈ 4.68 µM)	0.06 µg/mL (≈ 0.0703 µM)
CC[C@H]1OC(=O)[C@H](C)C(=O)[C@H](C)[C@@H](O[C@@H]2O[C@H](C)C[C@H](N(C)C)[C@H]2O)[C@](C)(OC(=O)N(C)C/C=C/c2ccc(-c3ncccn3)cc2)C[C@@H](C)C(=O)[C@H](C)[C@H]2NC(=O)O[C@@]21C [Compound 85]	1 µg/mL (≈ 1.18 µM)	>16 µg/mL	0.25 µg/mL (≈ 0.294 µM)	>16 µg/mL	0.12 µg/mL (≈ 0.141 µM)
CC[C@H]1OC(=O)[C@H](C)C(=O)[C@H](C)[C@@H](O[C@@H]2O[C@H](C)C[C@H](N(C)C)[C@H]2O)[C@](C)(OC(=O)NC/C=C/c2ccc(Oc3ncccn3)cc2)C[C@@H](C)C(=O)[C@H](C)[C@H]2NC(=O)O[C@@]21C [Compound 86]	0.5 µg/mL (≈ 0.587 µM)	>16 µg/mL	0.12 µg/mL (≈ 0.141 µM)	8 µg/mL (≈ 9.39 µM)	0.06 µg/mL (≈ 0.0704 µM)
CC[C@H]1OC(=O)[C@H](C)C(=O)[C@H](C)[C@@H](O[C@@H]2O[C@H](C)C[C@H](N(C)C)[C@H]2O)[C@](C)(OC(=O)NCc2ccc(-c3ncccn3)cc2F)C[C@@H](C)C(=O)[C@H](C)[C@H]2NC(=O)O[C@@]21C [Compound 87]	0.25 µg/mL (≈ 0.302 µM)	16 µg/mL (≈ 19.3 µM)	0.06 µg/mL (≈ 0.0725 µM)	4 µg/mL (≈ 4.83 µM)	0.03 µg/mL (≈ 0.0362 µM)
CC[C@H]1OC(=O)[C@H](C)C(=O)[C@H](C)[C@@H](O[C@@H]2O[C@H](C)C[C@H](N(C)C)[C@H]2O)[C@](C)(OC(=O)NC/C=C/c2ccc(-c3ncccn3)cc2F)C[C@@H](C)C(=O)[C@H](C)[C@H]2NC(=O)O[C@@]21C [Compound 88]	0.25 µg/mL (≈ 0.293 µM)	16 µg/mL (≈ 18.7 µM)	0.06 µg/mL (≈ 0.0703 µM)	8 µg/mL (≈ 9.37 µM)	0.06 µg/mL (≈ 0.0703 µM)
CCC1OC(=O)C(C)(F)C(=O)C(C)C(OC2OC(C)CC(N(C)C)C2O)C(C)(OC(=O)NCC=Cc2ccc(-c3ncccn3)cc2)CC(C)C(=O)C(C)C2NC(=O)OC12C (stereo not drawn) [Compound 89]	0.5 µg/mL (≈ 0.585 µM)	16 µg/mL (≈ 18.7 µM)	0.25 µg/mL (≈ 0.293 µM)	8 µg/mL (≈ 9.37 µM)	0.06 µg/mL (≈ 0.0703 µM)
CCC1OC(=O)C(C)(F)C(=O)C(C)C(OC2OC(C)CC(N(C)C)C2O)C(C)(OC(=O)NCC=Cc2ccc3ncccc3c2)CC(C)C(=O)C(C)C2NC(=O)OC12C (stereo not drawn) [Compound 90]	0.25 µg/mL (≈ 0.302 µM)	8 µg/mL (≈ 9.67 µM)	0.06 µg/mL (≈ 0.0726 µM)	4 µg/mL (≈ 4.84 µM)	0.03 µg/mL (≈ 0.0363 µM)
CCC1OC(=O)C(C)(F)C(=O)C(C)C(OC2OC(C)CC(N(C)C)C2O)C(C)(OC(=O)NCC=Cc2ccc(-n3cccn3)cc2)CC(C)C(=O)C(C)C2NC(=O)OC12C (stereo not drawn) [Compound 91]	0.25 µg/mL (≈ 0.297 µM)	16 µg/mL (≈ 19 µM)	0.12 µg/mL (≈ 0.143 µM)	4 µg/mL (≈ 4.75 µM)	0.06 µg/mL (≈ 0.0713 µM)
CC[C@H]1OC(=O)[C@H](C)C(=O)[C@H](C)[C@@H](O[C@@H]2O[C@H](C)C[C@H](N(C)C)[C@H]2O)[C@](C)(OC(=O)NC/C=C/c2cn(-c3ncccn3)cn2)C[C@@H](C)C(=O)[C@H](C)[C@H]2NC(=O)O[C@@]21C [Compound 92]	0.25 µg/mL (≈ 0.303 µM)	16 µg/mL (≈ 19.4 µM)	0.12 µg/mL (≈ 0.145 µM)	2 µg/mL (≈ 2.42 µM)	0.03 µg/mL (≈ 0.0363 µM)
CC[C@H]1OC(=O)[C@H](C)C(=O)[C@H](C)[C@@H](O[C@@H]2O[C@H](C)C[C@H](N(C)C)[C@H]2O)[C@](C)(OC(=O)NCc2cn(-c3ncccn3)cn2)C[C@@H](C)C(=O)[C@H](C)[C@H]2NC(=O)O[C@@]21C [Compound 93]	0.5 µg/mL (≈ 0.625 µM)	16 µg/mL (≈ 20 µM)	0.06 µg/mL (≈ 0.075 µM)	1 µg/mL (≈ 1.25 µM)	≦0.015 μg/mL
CC[C@H]1OC(=O)[C@H](C)C(=O)[C@H](C)[C@@H](O[C@@H]2O[C@H](C)C[C@H](N(C)C)[C@H]2OC(C)=O)[C@](C)(OC(=O)NC/C=C/c2ccc(-c3ncccn3)cc2)C[C@@H](C)C(=O)[C@H](C)[C@H]2NC(=O)O[C@@]21C [Compound 94]	0.25 µg/mL (≈ 0.285 µM)	>16 µg/mL	0.12 µg/mL (≈ 0.137 µM)	2 µg/mL (≈ 2.28 µM)	0.06 µg/mL (≈ 0.0683 µM)
CCC1OC(=O)C(C)C(=O)C(C)C(OC2OC(C)CC(N(C)C)C2O)C(C)(OC(=O)NCC=Cc2ccc(-c3cccnn3)cc2)CC(C)C(=O)C(C)C2NC(=O)OC12C (stereo not drawn) [Compound 96]	0.25 µg/mL (≈ 0.299 µM)	4 µg/mL (≈ 4.78 µM)	0.12 µg/mL (≈ 0.144 µM)	1 µg/mL (≈ 1.2 µM)	0.03 µg/mL (≈ 0.0359 µM)
CC[C@H]1OC(=O)[C@H](C)C(=O)[C@H](C)[C@@H](O[C@@H]2O[C@H](C)C[C@H](N(C)C)[C@H]2O)[C@](C)(OC(=O)NCc2ccc(-c3cccnn3)cc2)C[C@@H](C)C(=O)[C@H](C)[C@H]2NC(=O)O[C@@]21C [Compound 97]	0.5 µg/mL (≈ 0.617 µM)	16 µg/mL (≈ 19.8 µM)	0.06 µg/mL (≈ 0.0741 µM)	2 µg/mL (≈ 2.47 µM)	0.03 µg/mL (≈ 0.037 µM)
CCC1OC(=O)C(C)(O)C(=O)C(C)C(OC2OC(C)CC(N(C)C)C2O)C(C)(OC(=O)NCC=Cc2ccc(-c3cnccn3)cc2)CC(C)C(=O)C(C)C2NC(=O)OC12C (stereo not drawn) [Compound 98]	0.5 µg/mL (≈ 0.587 µM)	>16 µg/mL	0.25 µg/mL (≈ 0.293 µM)	4 µg/mL (≈ 4.69 µM)	0.03 µg/mL (≈ 0.0352 µM)
CCC1OC(=O)C(C)(F)C(=O)C(C)C(OC2OC(C)CC(N(C)C)C2O)C(C)(OC(=O)NCC=Cc2ccc(-c3cnccn3)cc2)CC(C)C(=O)C(C)C2NC(=O)OC12C (stereo not drawn) [Compound 101]	0.25 µg/mL (≈ 0.293 µM)	8 µg/mL (≈ 9.37 µM)	0.12 µg/mL (≈ 0.141 µM)	2 µg/mL (≈ 2.34 µM)	0.03 µg/mL (≈ 0.0351 µM)
CC[C@H]1OC(=O)[C@H](C)C(=O)[C@H](C)[C@@H](O[C@@H]2O[C@H](C)C[C@H](N(C)C)[C@H]2O)[C@](C)(OC(=O)NCCOCc2ccc(-c3ncccn3)cc2)C[C@@H](C)C(=O)[C@H](C)[C@H]2NC(=O)O[C@@]21C [Compound 107]	0.25 µg/mL (≈ 0.293 µM)	>16 µg/mL	0.12 µg/mL (≈ 0.141 µM)	4 µg/mL (≈ 4.68 µM)	0.06 µg/mL (≈ 0.0703 µM)
CCC1OC(=O)C(C)(F)C(=O)C(C)C(OC2OC(C)CC(N(C)C)C2O)C(C)(OC(=O)NCCOCc2ccc(-c3ncccn3)cc2)CC(C)C(=O)C(C)C2NC(=O)OC12C (stereo not drawn) [Compound 108]	0.5 µg/mL (≈ 0.573 µM)	>16 µg/mL	0.25 µg/mL (≈ 0.287 µM)	4 µg/mL (≈ 4.59 µM)	0.06 µg/mL (≈ 0.0688 µM)
CC[C@H]1OC(=O)[C@H](C)C(=O)[C@H](C)[C@@H](O[C@@H]2O[C@H](C)C[C@H](N(C)C)[C@H]2O)[C@](C)(OC(=O)NCCN2C(=O)c3ccccc3C2=O)C[C@@H](C)C(=O)[C@H](C)[C@H]2NC(=O)O[C@@]21C [Compound 109]	8 µg/mL (≈ 9.82 µM)	>16 µg/mL	2 µg/mL (≈ 2.45 µM)	16 µg/mL (≈ 19.6 µM)	0.25 µg/mL (≈ 0.307 µM)
CC[C@H]1OC(=O)[C@H](C)C(=O)[C@H](C)[C@@H](O[C@@H]2O[C@H](C)C[C@H](N(C)C)[C@H]2O)[C@](C)(OC(=O)NCCN)C[C@@H](C)C(=O)[C@H](C)[C@H]2NC(=O)O[C@@]21C [Compound 110]	16 µg/mL (≈ 23.4 µM)	>16 µg/mL	8 µg/mL (≈ 11.7 µM)	16 µg/mL (≈ 23.4 µM)	1 µg/mL (≈ 1.46 µM)
CC[C@H]1OC(=O)[C@H](C)C(=O)[C@H](C)[C@@H](O[C@@H]2O[C@H](C)C[C@H](N(C)C)[C@H]2O)[C@](C)(OC(=O)NCCNC(=O)c2ccc(-c3ccccc3)cc2)C[C@@H](C)C(=O)[C@H](C)[C@H]2NC(=O)O[C@@]21C [Compound 111]	1 µg/mL (≈ 1.16 µM)	>16 µg/mL	0.5 µg/mL (≈ 0.578 µM)	4 µg/mL (≈ 4.62 µM)	0.06 µg/mL (≈ 0.0694 µM)
CC[C@H]1OC(=O)[C@H](C)C(=O)[C@H](C)[C@@H](O[C@@H]2O[C@H](C)C[C@H](N(C)C)[C@H]2O)[C@](C)(OC(=O)NCCNC(=O)c2cccnc2)C[C@@H](C)C(=O)[C@H](C)[C@H]2NC(=O)O[C@@]21C [Compound 112]	16 µg/mL (≈ 20.3 µM)	>16 µg/mL	2 µg/mL (≈ 2.53 µM)	16 µg/mL (≈ 20.3 µM)	0.5 µg/mL (≈ 0.633 µM)
